According to ChEMBL document CHEMBL1201862, “PubChem BioAssay data set” (2004):
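Assay format: 96-well plates, 48-hour exposure. GI50 is the concentration that inhibits growth by half.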 Calls of active or inactive are those of the source. No stated cut-off is given here; in the data, active = GI50 up to about 1.1 µM and inactive = higher.

Experiments:
Assay in all cases: NCI anticancer screen, dose series, 48 h
[1] = system: TK-10
[2] = system: HOP-18
[3] = system: A549
[4] = system: U-251
[5] = system: EKVX
[6] = system: LXFL 529
[7] = system: SK-MEL-2
[8] = system: KM-20L2
[9] = system: HL-60
[10] = system: KM12
[11] = system: SK-OV-3
[12] = system: HCT-15
[13] = system: UACC-257
[14] = system: OVCAR-3
[15] = system: A498
[16] = system: OVCAR-4
[17] = system: SR
[18] = system: SF-295
[19] = system: NCI-H23
[20] = system: SNB-75
[21] = system: IGROV-1
[22] = system: ACHN
[23] = system: SW-620
[24] = system: K562
[25] = system: COLO 205
[26] = system: HT-29
[27] = system: HOP-62
[28] = system: SF-268
[29] = system: XF498
[30] = system: Malme-3M
[31] = system: SN12C
[32] = system: RXF 393
[33] = system: CCRF-CEM
[34] = system: MOLT-4
[35] = system: CAKI-1
[36] = system: UACC-62
[37] = system: OVCAR-5
[38] = system: SNB-78
[39] = system: HOP-92
[40] = system: DMS-114
[41] = system: DMS-273
[42] = system: LOX IMVI
[43] = system: HCC 2998
[44] = system: OVCAR-8
[45] = system: SF-539
[46] = system: M19-MEL
[47] = system: M14
[48] = system: RPMI-8226
[49] = system: 786-0
[50] = system: DLD-1
[51] = system: SK-MEL-28
[52] = system: UO-31
[53] = system: SK-MEL-5
[54] = system: NCI-H226
[55] = system: HCT-116
[56] = system: NCI-H460
[57] = system: SNB-19
[58] = system: NCI-H522
[59] = system: DU-145
[60] = system: MCF7
[61] = system: NCI/ADR-RES
[62] = system: PC-3
[63] = system: MDA-N
[64] = system: BT-549
[65] = system: MDA-MB-231
[66] = system: T47D
[67] = system: Hs-578T
[68] = system: MDA-MB-435

Structure (SMILES): CSc1ccc(/C=C2\CN(C)C/C(=C\c3ccc(SC)cc3)C2=O)cc1
- GI50 [1]: 56.6 µM (inactive)
- GI50 [2]: > 100 µM (inactive)
- GI50 [3]: > 100 µM (inactive)
- GI50 [4]: 4.65 µM (inactive)
- GI50 [5]: 81.3 µM (inactive)
- GI50 [6]: 5.22 µM (inactive)
- GI50 [7]: 39.4 µM (inactive)
- GI50 [8]: 32.1 µM (inactive)
- GI50 [9]: 21.1 µM (inactive)
- GI50 [10]: 8.75 µM (inactive)
- GI50 [11]: 30.8 µM (inactive)
- GI50 [12]: 32 µM
- GI50 [13]: 31.7 µM (inactive)
- GI50 [14]: 13.8 µM (inactive)
- GI50 [15]: 46.8 µM (inactive)
- GI50 [16]: > 100 µM (inactive)
- GI50 [17]: 7.57 µM (inactive)
- GI50 [18]: 21.1 µM (inactive)
- GI50 [19]: 4.52 µM (inactive)
- GI50 [20]: 12.5 µM (inactive)
- GI50 [21]: 32.6 µM (inactive)
- GI50 [22]: 40.6 µM (inactive)
- GI50 [23]: 23 µM (inactive)
- GI50 [24]: 22.2 µM (inactive)
- GI50 [25]: 21.2 µM (inactive)
- GI50 [26]: 15.2 µM (inactive)
- GI50 [27]: > 100 µM (inactive)
- GI50 [28]: 29.2 µM (inactive)
- GI50 [29]: 18.9 µM (inactive)
- GI50 [30]: > 100 µM (inactive)
- GI50 [31]: 23.3 µM (inactive)
- GI50 [32]: 22 µM (inactive)
- GI50 [33]: 23.1 µM (inactive)
- GI50 [34]: 19.4 µM (inactive)
- GI50 [35]: > 100 µM (inactive)
- GI50 [36]: 55.8 µM (inactive)
- GI50 [37]: > 100 µM (inactive)
- GI50 [38]: 19.8 µM (inactive)
- GI50 [39]: 4.23 µM (inactive)
- GI50 [40]: 24.9 µM (inactive)
- GI50 [41]: 14.1 µM (inactive)
- GI50 [42]: 6.47 µM (inactive)
- GI50 [43]: 79.4 µM (inactive)
- GI50 [44]: 13.5 µM (inactive)
- GI50 [45]: 20 µM (inactive)
- GI50 [46]: 35.1 µM (inactive)
- GI50 [47]: 92.3 µM (inactive)
- GI50 [48]: 2.52 µM (inactive)
- GI50 [49]: 54.1 µM (inactive)
- GI50 [50]: 11.5 µM (inactive)
- GI50 [51]: > 100 µM (inactive)
- GI50 [52]: > 100 µM (inactive)
- GI50 [53]: 48.8 µM (inactive)
- GI50 [54]: > 100 µM (inactive)
- GI50 [55]: 20.4 µM (inactive)
- GI50 [56]: 29.2 µM (inactive)

Structure (SMILES): O=C(O)c1oc2ccc([N+](=O)[O-])c3c2c1CCC3
- GI50 [1]: > 100 µM (inactive)
- GI50 [2]: > 100 µM (inactive)
- GI50 [3]: > 100 µM (inactive)
- GI50 [4]: > 100 µM (inactive)
- GI50 [5]: > 100 µM (inactive)
- GI50 [6]: > 100 µM (inactive)
- GI50 [7]: > 100 µM (inactive)
- GI50 [8]: > 100 µM (inactive)
- GI50 [9]: > 100 µM (inactive)
- GI50 [10]: > 100 µM (inactive)
- GI50 [13]: > 100 µM (inactive)
- GI50 [14]: > 100 µM (inactive)
- GI50 [57]: > 100 µM (inactive)
- GI50 [16]: > 100 µM (inactive)
- GI50 [18]: > 100 µM (inactive)
- GI50 [58]: > 100 µM (inactive)
- GI50 [19]: > 100 µM (inactive)
- GI50 [20]: 67.6 µM (inactive)
- GI50 [22]: > 100 µM (inactive)
- GI50 [23]: > 100 µM (inactive)
- GI50 [25]: > 100 µM (inactive)
- GI50 [26]: > 100 µM (inactive)
- GI50 [27]: > 100 µM (inactive)
- GI50 [28]: 74.3 µM (inactive)
- GI50 [29]: 24.4 µM (inactive)
- GI50 [30]: 54.1 µM (inactive)
- GI50 [31]: > 100 µM (inactive)
- GI50 [32]: > 100 µM (inactive)
- GI50 [35]: > 100 µM (inactive)
- GI50 [37]: > 100 µM (inactive)
- GI50 [38]: > 100 µM (inactive)
- GI50 [39]: 27.7 µM (inactive)
- GI50 [40]: > 100 µM (inactive)
- GI50 [41]: > 100 µM (inactive)
- GI50 [42]: > 100 µM (inactive)
- GI50 [43]: > 100 µM (inactive)
- GI50 [44]: > 100 µM (inactive)
- GI50 [45]: > 100 µM (inactive)
- GI50 [46]: > 100 µM (inactive)
- GI50 [47]: > 100 µM (inactive)
- GI50 [49]: 98.9 µM (inactive)
- GI50 [50]: > 100 µM (inactive)
- GI50 [51]: > 100 µM (inactive)
- GI50 [52]: > 100 µM (inactive)
- GI50 [54]: > 100 µM (inactive)
- GI50 [55]: > 100 µM (inactive)
- GI50 [56]: > 100 µM (inactive)

Structure (SMILES): COC(=O)[C@]12CC=C3O[C@@H]4OC5(CCCCC5)O[C@@H]4[C@H]3C1C(=O)C=CC2=O (stereo partly specified)
- GI50 [1]: 17.1 µM (inactive)
- GI50 [2]: 18.5 µM (inactive)
- GI50 [3]: 32.1 µM (inactive)
- GI50 [59]: 21 µM (inactive)
- GI50 [4]: 18.7 µM (inactive)
- GI50 [5]: 33.2 µM (inactive)
- GI50 [6]: 9.84 µM (inactive)
- GI50 [7]: 22.2 µM (inactive)
- GI50 [60]: 16 µM (inactive)
- GI50 [8]: 19.7 µM (inactive)
- GI50 [9]: 8.91 µM (inactive)
- GI50 [10]: 10.9 µM (inactive)
- GI50 [11]: 30.7 µM (inactive)
- GI50 [12]: 15.6 µM
- GI50 [13]: 16.3 µM (inactive)
- GI50 [14]: 8.81 µM (inactive)
- GI50 [57]: 38.3 µM (inactive)
- GI50 [15]: 17.9 µM (inactive)
- GI50 [61]: 18.1 µM (inactive)
- GI50 [16]: 17.1 µM (inactive)
- GI50 [17]: 22.3 µM (inactive)
- GI50 [18]: 24.6 µM (inactive)
- GI50 [58]: 5.53 µM (inactive)
- GI50 [19]: 17.1 µM (inactive)
- GI50 [20]: 18.8 µM (inactive)
- GI50 [62]: 24.9 µM (inactive)
- GI50 [21]: 18.4 µM (inactive)
- GI50 [22]: 18.5 µM (inactive)
- GI50 [23]: 15.9 µM (inactive)
- GI50 [24]: 14.6 µM (inactive)
- GI50 [25]: 15.7 µM (inactive)
- GI50 [26]: 17.9 µM (inactive)
- GI50 [27]: 21 µM (inactive)
- GI50 [63]: 19.1 µM (inactive)
- GI50 [28]: 3.97 µM (inactive)
- GI50 [64]: 19.2 µM (inactive)
- GI50 [29]: 12.6 µM (inactive)
- GI50 [30]: 17.9 µM (inactive)
- GI50 [31]: 18.4 µM (inactive)
- GI50 [32]: 8.73 µM (inactive)
- GI50 [33]: 4.13 µM (inactive)
- GI50 [34]: 7.03 µM (inactive)
- GI50 [35]: 15.9 µM (inactive)
- GI50 [65]: 16.8 µM (inactive)
- GI50 [36]: 16 µM (inactive)
- GI50 [37]: 20.5 µM (inactive)
- GI50 [38]: 18.8 µM (inactive)
- GI50 [39]: 18.7 µM (inactive)
- GI50 [66]: 17.1 µM (inactive)
- GI50 [40]: 17.5 µM (inactive)
- GI50 [41]: 18.1 µM (inactive)
- GI50 [42]: 16.8 µM (inactive)
- GI50 [43]: 17.2 µM (inactive)
- GI50 [44]: 20.2 µM (inactive)
- GI50 [45]: 19.6 µM (inactive)
- GI50 [46]: 16 µM (inactive)
- GI50 [47]: 17.4 µM (inactive)
- GI50 [67]: 26.1 µM (inactive)
- GI50 [48]: 7.64 µM (inactive)
- GI50 [49]: 17 µM (inactive)
- GI50 [50]: 15.5 µM (inactive)
- GI50 [68]: > 10 µM (inactive)
- GI50 [51]: 18.9 µM (inactive)
- GI50 [52]: 17 µM (inactive)
- GI50 [53]: 18.6 µM (inactive)
- GI50 [54]: 18.6 µM (inactive)
- GI50 [55]: 17.5 µM (inactive)
- GI50 [56]: 22.3 µM (inactive)
